Common to all, as to type: biochemical
For one assay, the target named is T1, JAK3 (Homo sapiens, UniProt P52333).
T1 construct: made in house; host or cells: SF9 insect cells (baculovirus)
The experiment in a line: JAK3 inhibition (Table 4). The settings on record: read-out: JAK3 Ki.

Another assay deals with T2, JAK2 (Homo sapiens, UniProt O60674).
T2 construct: made in house; host or cells: SF9 insect cells (baculovirus)
Nature of the assay: JAK2 inhibition (Table 4). The note with it: read-out: JAK2 Ki.

A further assay has as its target T3, TYK2 (Homo sapiens, UniProt P29597).
T3 construct: made in house; host or cells: SF9 insect cells (baculovirus)
T3 sequence (P29597 873-1187): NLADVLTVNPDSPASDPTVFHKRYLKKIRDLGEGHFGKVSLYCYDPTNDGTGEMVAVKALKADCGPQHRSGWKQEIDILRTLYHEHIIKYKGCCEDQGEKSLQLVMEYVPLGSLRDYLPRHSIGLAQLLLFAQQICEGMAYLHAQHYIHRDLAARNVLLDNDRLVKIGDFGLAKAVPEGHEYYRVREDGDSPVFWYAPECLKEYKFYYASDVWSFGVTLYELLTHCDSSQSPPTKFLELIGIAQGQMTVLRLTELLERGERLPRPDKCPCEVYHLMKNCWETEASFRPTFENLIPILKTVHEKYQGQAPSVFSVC
The experiment in a line: TYK2 inhibition (Table 4).

A further assay addresses T4, JAK1 (Homo sapiens, UniProt P23458).
T4 construct: made in house; host or cells: SF9 insect cells (baculovirus)
The experiment in a line: JAK1 inhibition (Table 4). The note with it: read-out: JAK1 Ki.

For orientation: Ki means the dissociation constant of the complex between target and ligand, obtained from inhibition or displacement.

T1 sequence (P52333 783-1124): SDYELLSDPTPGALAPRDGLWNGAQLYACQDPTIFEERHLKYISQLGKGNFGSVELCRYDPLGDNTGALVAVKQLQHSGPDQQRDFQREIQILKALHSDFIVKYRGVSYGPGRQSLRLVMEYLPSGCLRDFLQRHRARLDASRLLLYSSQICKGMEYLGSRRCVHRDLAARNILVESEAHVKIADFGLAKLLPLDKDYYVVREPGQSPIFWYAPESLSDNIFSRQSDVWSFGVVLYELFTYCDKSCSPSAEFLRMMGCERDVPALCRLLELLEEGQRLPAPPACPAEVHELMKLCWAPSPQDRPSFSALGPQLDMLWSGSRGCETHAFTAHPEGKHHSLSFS
T2 sequence (O60674 812-1132): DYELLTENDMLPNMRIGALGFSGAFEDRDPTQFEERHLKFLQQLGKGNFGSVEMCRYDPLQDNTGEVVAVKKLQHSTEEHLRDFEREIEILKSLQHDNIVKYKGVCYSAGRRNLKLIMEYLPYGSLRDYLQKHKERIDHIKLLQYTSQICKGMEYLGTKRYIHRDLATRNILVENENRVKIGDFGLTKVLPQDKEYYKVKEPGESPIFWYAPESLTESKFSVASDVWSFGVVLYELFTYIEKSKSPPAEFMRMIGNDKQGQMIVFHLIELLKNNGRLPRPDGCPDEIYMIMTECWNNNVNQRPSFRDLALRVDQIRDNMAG
T4 sequence (P23458 852-1154): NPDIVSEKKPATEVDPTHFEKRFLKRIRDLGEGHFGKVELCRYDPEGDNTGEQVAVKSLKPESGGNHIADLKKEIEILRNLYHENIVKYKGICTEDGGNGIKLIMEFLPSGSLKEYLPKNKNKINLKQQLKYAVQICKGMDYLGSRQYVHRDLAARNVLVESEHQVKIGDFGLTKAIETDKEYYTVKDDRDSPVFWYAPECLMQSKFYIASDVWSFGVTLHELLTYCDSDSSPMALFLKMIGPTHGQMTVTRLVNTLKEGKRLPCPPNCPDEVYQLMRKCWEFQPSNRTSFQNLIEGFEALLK

For `c1cncc(CN[C@H]2CC[C@H](n3cnc4cnc5[nH]ccc5c43)CC2)c1` [Example 336, Pyridin-3-ylmethyl-[4-(6H-1,3,5,6-tetraaza-as-indacen-1-yl)-cyclohexyl]-amine], the Ki on JAK3 was found to be 656 nM; on JAK2 it was 63.4 nM; at TYK2, 77.6 nM; on JAK1 it was 16 nM.
Turning to `N#CCCN1CCC(n2c(C3CC3)nc3cnc4[nH]ccc4c32)CC1` [Example 337, 3-[4-(2-Cyclopropyl-6H-1,3,5,6-tetraaza-as-indacen-1-yl)-piperidin-1-yl]-propionitrile], the Ki on JAK3 was 10.7 nM; on JAK2, 5.31 nM; on TYK2 it was 33.7 nM; at JAK1 it was 2.9 nM.
Regarding `OCCN1CCC(n2cnc3cnc4[nH]ccc4c32)CC1` [Example 338, 2-[4-(6H-1,3,5,6-Tetraaza-as-indacen-1-yl)-piperidin-1-yl]-ethanol], the Ki at JAK3 was determined as 288 nM; on JAK2, 50.1 nM; on TYK2, 158 nM; on JAK1 it was 21.1 nM.
Take `FC(F)(F)CCN1CCC(n2cnc3cnc4[nH]ccc4c32)CC1` [Example 339, 1-[1-(3,3,3-Trifluoro-propyl)-piperidin-4-yl]-1,6-dihydro-1,3,5,6-tetraaza-as-indacene]: the Ki is 40.5 nM on JAK3, 7.83 nM on JAK2, 22.5 nM at TYK2 and 3.89 nM at JAK1.
For `N#C[C@@H]1C[C@@H]1C(=O)N1CCC[C@@H](n2cnc3cnc4[nH]ccc4c32)C1` [Example 340, (1R,2S)-2-[(R)-3-(6H-1,3,5,6-Tetraaza-as-indacen-1-yl)-piperidine-1-carbonyl]-cyclopropanecarbonitrile], the Ki at JAK3 came to 24.6 nM; on JAK2, 19.5 nM; on TYK2 it was 101 nM; on JAK1, 17.2 nM.
`CN([C@H]1CC[C@H](n2cnc3cnc4[nH]ccc4c32)CC1)S(=O)(=O)C1CC1` [Example 341, Cyclopropanesulfonic acid methyl-[4-(6H-1,3,5,6-tetraaza-as-indacen1-yl)-cyclohexyl]-amide]: the inhibition constant Ki was determined as 169 nM on JAK3, 7.47 nM on JAK2, 106 nM at TYK2 and 10.2 nM at JAK1.
As to `CC(C)(O)Cc1nc2cnc3[nH]ccc3c2n1C1CCN(CCC#N)CC1` [Example 346, 3-{4-[2-(2-Hydroxy-2-methyl-propyl)-6H-1,3,5,6-tetraaza-as-indacen-1-yl)-piperidin-1-yl}-propionitrile], the inhibition constant (Ki) at JAK3 came out at 51.8 nM; at JAK2, 31.5 nM; at TYK2, 140 nM; on JAK1, 13.9 nM.
`O=C(N[C@H]1CC[C@H](n2cnc3cnc4[nH]ccc4c32)CC1)OC1CCCC1` [Example 347, [4-(6H-1,3,5,6-Tetraaza-as-indacen-1-yl)-cyclohexyl]-carbamic acid cyclopentyl ester]: the Ki was 136 nM at JAK3, 14.5 nM on JAK2, 130 nM at TYK2 and 4.96 nM on JAK1.
Regarding `CC1(COC(=O)N[C@H]2CC[C@H](n3cnc4cnc5[nH]ccc5c43)CC2)CC1` [Example 348, [4-(6H-1,3,5,6-Tetraaza-as-indacen-1-yl)-cyclohexyl]-carbamic acid 1-methyl-cyclopropylmethyl ester], the Ki at JAK3 stood at 78.5 nM; at JAK2, 15 nM; on TYK2, 148 nM; at JAK1 it was 5.6 nM.
The corresponding values for `CC(C)(C)OC(=O)N1CCC[C@@H](n2cnc3cnc4[nH]ccc4c32)C1` [Example 349, (R)-3-(6H-1,3,5,6-Tetraaza-as-indacen-1-yl)-piperidine-1-carboxylic acid tert-butyl ester] are 120 nM, 19 nM, 113 nM and 15.3 nM.
Turning to `COC(=O)N[C@H]1CC[C@H](n2nnc3cnc4[nH]ccc4c32)CC1` [Example 353, [4-(6H-1,2,3,5,6-Pentaaza-as-indacen-1-yl)-cyclohexyl]-carbamic acid methyl ester], the inhibitory constant (Ki) came out at 216 nM on JAK3, 15 nM at JAK2, 87.4 nM on TYK2 and 8.27 nM on JAK1.
In the case of `Cc1nc2cnc3[nH]ccc3c2n1C1CCN(CC(O)(C(F)(F)F)C(F)(F)F)CC1` [Example 354, 1,1,1,3,3,3-Hexafluoro-2-[4-(2-methyl-6H-1,3,5,6-tetraaza-as-indacen-1-yl)-piperidin-1-ylmethyl]-propan-2-ol], the Ki at JAK3 turned out to be 120 nM; on JAK2 it was 5.24 nM; at TYK2, 10.9 nM; on JAK1 it was 2.5 nM.
As for `COCCOC(=O)N[C@H]1CC[C@H](n2cnc3cnc4[nH]ccc4c32)CC1` [Example 356, [4-(6H-1,3,5,6-Tetraaza-as-indacen-1-yl)-cyclohexyl]-carbamic acid 2-methoxy-ethyl ester], the Ki at JAK3 was determined as 209 nM; at JAK2, 28.5 nM; on TYK2, 192 nM; on JAK1, 10.6 nM.
On to `CN(C)CCOC(=O)N[C@H]1CC[C@H](n2cnc3cnc4[nH]ccc4c32)CC1` [Example 358, [4-(6H-1,3,5,6-Tetraaza-as-indacen-1-yl)-cyclohexyl]-carbamic acid 2-dimethylamino-ethyl ester], for which the Ki on JAK3 was 434 nM; on JAK2, 82.6 nM; at TYK2, 147 nM; on JAK1, 22.2 nM.
As for `O=S(=O)(c1ccccc1)N1CCC[C@@H](n2cnc3cnc4[nH]ccc4c32)C1` [Example 359, 1-((R)-1-Benzenesulfonyl-piperidin-3-yl)-1,6-dihydro-1,3,5,6-tetraaza-as-indacene], the inhibitory constant (Ki) at JAK3 amounted to 67.1 nM; at JAK2, 10.5 nM; at TYK2, 52.8 nM; on JAK1, 12.4 nM.
Turning to `N#Cc1ccc(S(=O)(=O)N2CCC[C@@H](n3cnc4cnc5[nH]ccc5c43)C2)cc1` [Example 360, 4-[(R)-3-(6H-1,3,5,6-Tetraaza-as-indacen-1-yl)-piperidine-1-sulfonyl]-benzonitrile], the Ki on JAK3 is 37.2 nM; at JAK2 it was 8.12 nM; on TYK2, 40.8 nM; at JAK1 it was 8.43 nM.
Regarding `CS(=O)(=O)N1CCC(n2c(-c3cccnc3)nc3cnc4[nH]ccc4c32)CC1` [Example 361, 1-(1-Methanesulfonyl-piperidin-4-yl)-2-pyridin-3-yl-1,6-dihydro-1,3,5,6-tetraaza-as-indacene], the Ki on JAK3 was 354 nM; at JAK2, 248 nM; on TYK2 it was 732 nM; at JAK1 it was 379 nM.
The corresponding values for `Cc1nc2cnc3[nH]ccc3c2n1C1CCN(C2COC2)CC1` [Example 363, 2-Methyl-1-(1-oxetan-3-yl-piperidin-4-yl)-1,6-dihydro-1,3,5,6-tetraaza-as-indacene] are 123 nM, 11.2 nM, 54.6 nM and 6.05 nM.
As for `c1cc2c(ncc3ncn([C@H]4CCCNC4)c32)[nH]1` [Example 364, (S)-1-Piperidin-3-yl-1,6-dihydro-1,3,5,6-tetraaza-as-indacene], the inhibition constant Ki at JAK3 came out at 171 nM; on JAK2, 179 nM; at TYK2 it was 207 nM; on JAK1 it was 36.9 nM.

Values taken from US8461328B2, “Tricyclic heterocyclic compounds, compositions and methods of use thereof” (Genentech, Inc., priority 2010, dated 2013).
